Where two headings read alike, the source gives them in different places.
Key:
[1] = tested on: GCPA007 T2.IV patient-derived AGCT cell line; assay: Cell viability drug screen (Cell Titer Glo 2.0, 72 h), mono- and combination therapy, GCPA007T2.IV; details: Homo sapiens, 72 h, read-out: IC50 in monotherapy
Description: (§1) Cell lines were seeded at a density of 500 cells/well in 40 uL in 384-well plates (Corning, NY, USA) with the Multidrop™ cell dispenser (Thermo Fischer Scientific, Waltham, MA, USA) and sealed with Breathe-Easy® membrane (Sigma-Aldrich, St. Louis, MO, USA) to prevent evaporation. […] For each cell line, three biological repeats and two technical repeats each were performed in order to ensure the validity of the drug screens. […] Subsequently, 11 drugs and 12 drug combinations were dispensed and all wells (excluding blanks and non-DMSO control wells) were normalized to 1% DMSO using the HP Tecan D300e Digital Dispenser (Hewlett-Packard, Palo Alto, CA, USA). […] Next, the plates were covered with the Breathe-Easy membrane and incubated. After 72 h, the Multidrop dispensed 15 uL per well of Cell Titer Glo 2.0 (Thermo Fischer Scientific, Waltham, MA, USA) and plates were incubated in the dark for 10 min. After incubation, luminescence excitation was assessed in the Spectramax reader (Molecular Devices, San Jose, CA, USA) (top read, luminescence excitation at 500 nm) and raw data were processed in Microsoft Excel to subtract background luminescence. The Z-factor, a mathematical method used to quantify the quality of a drug screen based on the calculation of the separation band between the values of the positive and negative controls, was utilized to assess the quality of drug screens [54]. Screens with a Z-factor value of >0.5 were used for further analysis.
(§2) Overall cell survival (in %) was plotted against the drug concentration range of each drug (in log10[μM]) using GraphPad Prism 8.3.1. Values that exceeded 100% survival (within +20% biological deviation) were normalized to 100% survival. Similarly, values below 0% cell survival (within −20% biological deviation) were normalized to 0% survival. Values exceeding this deviation were excluded. Dose–response curves were obtained using the model “log(inhibitor) vs. variable slope (normalized response)” to fit the dose–response curves and R^2 values were used to indicate how well the model fit the data (Supplementary Materials Figures S4 and S5). […] The IC50 values were calculated based on the Chou–Talalay method using Compusyn software [55]. For anti-hormonal treatment, mostly provided as maintenance therapy, we used IC10 values in addition to the IC50.
(§3) In addition to the 11 monotherapies, 12 drug combinations were tested (Table 3) simultaneously with the individual drug treatments in the same 384-well plate. […] Synergy was evaluated using the mass action law, a systematic analysis assessing dose–response dynamics in a cost-effective manner [56, 57]. The combination index (CI) was used to indicate antagonistic (CI > 1) additive (CI = 1) and synergistic (CI < 1) effects [55].

[2] = tested on: GCPA113 T1.II patient-derived AGCT cell line; assay: Cell viability drug screen (Cell Titer Glo 2.0, 72 h), mono- and combination therapy, GCPA113T1.II; details: for IC50: Homo sapiens, 72 h, read-out: IC50 in monotherapy
[3] = tested on: GCPA096 T1.XV patient-derived AGCT cell line; assay: Cell viability drug screen (Cell Titer Glo 2.0, 72 h), mono- and combination therapy, GCPA096T1.XV; details: Homo sapiens, 72 h, read-out: IC50 in monotherapy
Description: (§4) Cell lines were seeded at a density of 500 cells/well in 40 uL in 384-well plates (Corning, NY, USA) with the Multidrop™ cell dispenser (Thermo Fischer Scientific, Waltham, MA, USA) and sealed with Breathe-Easy® membrane (Sigma-Aldrich, St. Louis, MO, USA) to prevent evaporation. The SVOG-3e line was seeded at 1000 cells/well due to contact-dependent growth requirements. For each cell line, three biological repeats and two technical repeats each were performed in order to ensure the validity of the drug screens. […] Subsequently, 11 drugs and 12 drug combinations were dispensed and all wells (excluding blanks and non-DMSO control wells) were normalized to 1% DMSO using the HP Tecan D300e Digital Dispenser (Hewlett-Packard, Palo Alto, CA, USA). All drugs were applied in linear concentration ranges (Table 2), including 16 data points to enable combination drug testing at constant ratios (Table 3). Next, the plates were covered with the Breathe-Easy membrane and incubated. After 72 h, the Multidrop dispensed 15 uL per well of Cell Titer Glo 2.0 (Thermo Fischer Scientific, Waltham, MA, USA) and plates were incubated in the dark for 10 min. After incubation, luminescence excitation was assessed in the Spectramax reader (Molecular Devices, San Jose, CA, USA) (top read, luminescence excitation at 500 nm) and raw data were processed in Microsoft Excel to subtract background luminescence. The Z-factor, a mathematical method used to quantify the quality of a drug screen based on the calculation of the separation band between the values of the positive and negative controls, was utilized to assess the quality of drug screens [54]. Screens with a Z-factor value of >0.5 were used for further analysis.
(§5) Overall cell survival (in %) was plotted against the drug concentration range of each drug (in log10[μM]) using GraphPad Prism 8.3.1. Values that exceeded 100% survival (within +20% biological deviation) were normalized to 100% survival. Similarly, values below 0% cell survival (within −20% biological deviation) were normalized to 0% survival. Values exceeding this deviation were excluded. Dose–response curves were obtained using the model “log(inhibitor) vs. variable slope (normalized response)” to fit the dose–response curves and R^2 values were used to indicate how well the model fit the data (Supplementary Materials Figures S4 and S5). […] The maximum plasma concentration (Cmax) and the plasma concentration at steady state (Css) were used as toxicity thresholds. The Cmax was utilized for drugs in which short, high-dosage time courses are required, while the Css was used for maintenance therapy regimes such as anti-hormonal treatment. […] The IC50 values were calculated based on the Chou–Talalay method using Compusyn software [55]. For anti-hormonal treatment, mostly provided as maintenance therapy, we used IC10 values in addition to the IC50.
as §3

[4] = tested on: GCPA096 T1.XVI patient-derived AGCT cell line; assay: Cell viability drug screen (Cell Titer Glo 2.0, 72 h), mono- and combination therapy, GCPA096T1.XVI; details: Homo sapiens, 72 h, read-out: IC50 in monotherapy
Description: (§6) Cell lines were seeded at a density of 500 cells/well in 40 uL in 384-well plates (Corning, NY, USA) with the Multidrop™ cell dispenser (Thermo Fischer Scientific, Waltham, MA, USA) and sealed with Breathe-Easy® membrane (Sigma-Aldrich, St. Louis, MO, USA) to prevent evaporation. The SVOG-3e line was seeded at 1000 cells/well due to contact-dependent growth requirements. For each cell line, three biological repeats and two technical repeats each were performed in order to ensure the validity of the drug screens. […] Subsequently, 11 drugs and 12 drug combinations were dispensed and all wells (excluding blanks and non-DMSO control wells) were normalized to 1% DMSO using the HP Tecan D300e Digital Dispenser (Hewlett-Packard, Palo Alto, CA, USA). All drugs were applied in linear concentration ranges (Table 2), including 16 data points to enable combination drug testing at constant ratios (Table 3). Next, the plates were covered with the Breathe-Easy membrane and incubated. After 72 h, the Multidrop dispensed 15 uL per well of Cell Titer Glo 2.0 (Thermo Fischer Scientific, Waltham, MA, USA) and plates were incubated in the dark for 10 min. After incubation, luminescence excitation was assessed in the Spectramax reader (Molecular Devices, San Jose, CA, USA) (top read, luminescence excitation at 500 nm) and raw data were processed in Microsoft Excel to subtract background luminescence. […] Screens with a Z-factor value of >0.5 were used for further analysis.
as §5, §3

[5] = tested on: GCPA028 T1.II patient-derived AGCT cell line; assay: Cell viability drug screen (Cell Titer Glo 2.0, 72 h), mono- and combination therapy, GCPA028; details: Homo sapiens, 72 h, read-out: IC50 in monotherapy
[6] = tested on: GCPA096 T1.II patient-derived AGCT cell line; assay: Cell viability drug screen (Cell Titer Glo 2.0, 72 h), mono- and combination therapy, GCPA096T1.II; details: Homo sapiens, 72 h, read-out: IC50 in monotherapy
Description: as §6, §5, §3

[7] = tested on: GCPA007 T2.I patient-derived AGCT cell line; assay: Cell viability drug screen (Cell Titer Glo 2.0, 72 h), mono- and combination therapy, GCPA007T2.I; details: Homo sapiens, 72 h, read-out: IC50 in monotherapy
Description: as §6, §5, §3

[8] = tested on: GCPA096 T1.I patient-derived AGCT cell line; assay: Cell viability drug screen (Cell Titer Glo 2.0, 72 h), mono- and combination therapy, GCPA096T1.I; details: Homo sapiens, 72 h, read-out: IC50 in monotherapy
Description: as §1, §2, §3

[9] = tested on: GCPA113 T1.I patient-derived AGCT cell line; assay: Cell viability drug screen (Cell Titer Glo 2.0, 72 h), mono- and combination therapy, GCPA113T1.I; details: Homo sapiens, 72 h, read-out: IC50 in monotherapy
Description: as §1, §2, §3

[10] = tested on: GCPA096 T1.V patient-derived AGCT cell line; assay: Cell viability drug screen (Cell Titer Glo 2.0, 72 h), mono- and combination therapy, GCPA096T1.V; details: Homo sapiens, 72 h, read-out: IC50 in monotherapy
Description: as §6, §5, §3

[11] = tested on: GCPA113 T1.III patient-derived AGCT cell line; assay: Cell viability drug screen (Cell Titer Glo 2.0, 72 h), mono- and combination therapy, GCPA113T1.III; details: Homo sapiens, 72 h, read-out: IC50 in monotherapy
Description: as §1, §2, §3

[12] = tested on: GCPA108 T3.IV patient-derived AGCT cell line; assay: Cell viability drug screen (Cell Titer Glo 2.0, 72 h), mono- and combination therapy, GCPA108T3.IV; details: Homo sapiens, 72 h, read-out: IC50 in monotherapy
Description: as §4, §5, §3

[13] = cited from earlier work; for Cmax: read-out: Cmax/Css plasma
[14] = tested on: KGN cells (AGCT cell line); assay: Cell viability drug screen (Cell Titer Glo 2.0, 72 h), mono- and combination therapy, KGN; details: Homo sapiens, 72 h, read-out: IC50 in monotherapy
AGCT cell lines = assay: Cell viability drug screen (72 h), summary over AGCT cell lines (12 patient-derived, with or without KGN); assay type: cell-based, human; details: range over AGCT cell lines; monotherapy
Description: as §4, §5, §3

[15] = human plasma maximum/steady state concentration, ref phase I/II clinical trials

Compound | IC50 [1] | IC50 [2] | IC50 [3] | IC50 [4] | IC50 [5] | IC50 [6] | IC50 [7] | IC50 [8] | IC50 [9] | IC50 [10] | IC50 [11] | IC50 [12] | IC50 [14] | other results
Cc1nc(Nc2ncc(C(=O)Nc3c(C)cccc3Cl)s2)cc(N2CCN(CCO)CC2)n1 [Dasatinib] | > 20 µM | > 20 µM | > 20 µM | > 20 µM | > 20 µM | > 20 µM | > 20 µM | 14.2 µM | > 20 µM | > 20 µM | 18.1 µM | 4.65 µM | 4.77 µM | Cmax/Css plasma (Log 10) ([13]; human maximum or steady state plasma concentration, log10 of the uM value): -0.9208 Log 10; Cmax/Css plasma (Log 10) ([13]; human plasma Cmax/Css, log10 of uM value, from phase I/II clinical trials): -0.9208 Log 10; Cmax/Css plasma (Log 10) [13, 15]: -0.9208 Log 10; Cmax/Css plasma (Log 10) ([13]; human plasma, maximum or steady state concentration, log10 of uM value): -0.9208; Cmax/Css plasma (Log 10) ([13]; human plasma, log10 of uM, phase I/II trials): -0.9208; Cmax ([13]; human maximum or steady state plasma concentration): 120 nM; Cmax ([13]; human plasma Cmax/Css, from phase I/II clinical trials): 120 nM; Cmax [13, 15]: 120 nM; Cmax ([13]; human plasma, maximum or steady state concentration): 120 nM; Cmax ([13]; human plasma, phase I/II trials): 120 nM
CC(=O)[C@@]1(O)CC[C@H]2[C@@H]3CCC4=CC(=O)CCC4=C3[C@@H](c3ccc(N(C)C)cc3)C[C@@]21C [Ulipristal] | > 50 µM | > 50 µM | > 50 µM | > 50 µM | 49.9 µM | > 50 µM | > 50 µM | > 50 µM | > 50 µM | > 50 µM | > 50 µM | > 50 µM | 43.7 µM | –
CC/C(=C(\c1ccccc1)c1ccc(OCCN(C)C)cc1)c1ccccc1 [Tamoxifen] | – | – | – | – | – | – | – | – | – | – | – | – | – | range IC10 (concentration needed to obtain 10% cell death) (AGCT cell lines): 6.04 to 15.03 µM
C[C@]12CC[C@@H]3c4ccc(O)cc4C[C@@H](CCCCCCCCC[S+]([O-])CCCC(F)(F)C(F)(F)F)[C@H]3[C@@H]1CC[C@@H]2O (stereo partly shown) [Fulvestrant] | > 100 µM | – | > 100 µM | > 100 µM | 33.3 µM | > 100 µM | > 100 µM | > 100 µM | > 100 µM | > 100 µM | > 100 µM | – | > 100 µM | IC50 in monotherapy ([2]; GCPA113T1II, monotherapy): Infinit
